Experimental data reported in US8779092B2, “Metastasis-specific peptides and their diagnostic and therapeutic applications” (Universita Degli Studi di Torino, priority 2006, dated 2014).

Tested on: primary cells of hepatic metastasis
Experiment: Binding experiments on primary cells
Design: species or system human
Conditions: for binding of phage clone to primary hepatic metastasis cells, summary over samples: all tested patient samples; for binding of phage clone to primary hepatic metastasis cells: compared to normal liver of the same patient
Procedure: Samples were processed immediately after surgical removal, in order to disaggregate the tissues and extract single cells on which to perform the experiments. All the manipulations were performed under laminar flux in sterility. Samples were chopped with a scalpel in a small volume of PBS. The suspension, collected in PBS, was centrifuged for 3 minutes at 100 rpm at room temperature and the pellet was resuspended in 5 ml of collagenase (0.25% weight/volume in DMEM). The digestion of the tissue fragments was done incubating this suspension for 2 hours at 37° C. while shaking. The sample was again centrifuged, to eliminate all the particulate under the cell size (lipid aggregates, cell portions) or also smaller cells, of hematopoietic origin. Pellet was washed twice in PBS. Cells were filtered on filters with a diameter of 45 μm, counted in Burker chamber and resuspended at a concentration of 10^6/ml in DMEM/FCS/HEPES.
These assays were performed with an Input of 10^9 TU of each clone, on cells from the hepatic metastasis cell line (target) and on cells from normal liver (negative control). The Output of these experiments was normalized on binding to an insertless phage, fd-tet, giving a measure of the unspecific interaction due to the phage itself. The binding increase was evaluated as ratio between normalized Output of the target and normalized Output of the negative control. All the experiments were repeated at least 3 times, when possible for material availability.
To evaluate if the selected inserts were specific for ubiquitous surface determinants in human hepatic metastases, the 7 selected clones were tested on primary cells of hepatic metastasis, comparing to normal liver of the same patients. For these binding assays, samples from 9 patients were used (20, 21, 22, 25, 26, 27, 28, 31, 32), with the same conditions described for the cell lines.
In the first experiments, due to the low cell numbers, related to the set up phase of the purification procedure, the binding of only some clones was evaluated. In general, 3 assays have been performed for each sample. […] It is interesting to note that, in the experiments on fresh cells, binding increases are much higher than in those performed with the cultured cell lines.

Substance	binding of phage clone to primary hepatic metastasis cells, summary over samples	binding of phage clone to primary hepatic metastasis cells (patient P#27)	binding of phage clone to primary hepatic metastasis cells (patient P#28)
ARPGLRS (listed as Homo sapiens) [SEQ ID NO. 1]	worked on all the samples		
GIYRLRS ((6)..(6) May be fused with GST; listed as Homo sapiens) [SEQ ID NO. 6]	worked on all the samples		
GVYSLRS (listed as Homo sapiens) [SEQ ID NO. 7]	worked on all the samples		
LRPGLRS (listed as Homo sapiens) [SEQ ID NO. 3]	worked on all the samples		
MRYALRS (listed as Homo sapiens) [SEQ ID NO. 2]		negative	negative
